In brackets after ≈: the same amount, converted by molar mass. Several values for one entry are separate records, joined by “and”; a condition that tells them apart may be missing. Identical values can stand only once. Like-named read-outs stand apart in the source and are kept apart here.
Experiments:
VRE 342B = assay: Antibacterial screening, broth microdilution MIC; type: cell-based, vancomycin-resistant E. faecalis; details: Enterococcus, vanA isolate, 24 h at 37 °C, read-out: MIC VRE 342B
VRE 368 = assay: Antibacterial screening, broth microdilution MIC; type: cell-based, vancomycin-resistant E. faecalis; details: Enterococcus, read-out: MIC VRE 368
E. coli ATCC 25922 = assay: Antibacterial screening, broth microdilution MIC; type: cell-based; details: Escherichia coli, ATCC25922; ATCC 25922, 24 h at 37 °C
VRE 725B = assay: Antibacterial screening, broth microdilution MIC; type: cell-based, vancomycin-resistant E. faecalis; details: Enterococcus, vanA isolate, 24 h at 37 °C, read-out: MIC VRE 725B
MRSA SA 630 = assay: Antibacterial screening, broth microdilution MIC; type: cell-based, methicillin-resistant S. aureus; details: Staphylococcus aureus, read-out: MIC MRSA SA 630
MRSA 63718 = assay: Antibacterial screening, broth microdilution MIC; type: cell-based, methicillin-resistant S. aureus; details: Staphylococcus aureus, read-out: MIC MRSA 63718
MRSA SA 3202 = assay: Antibacterial screening, broth microdilution MIC; type: cell-based, methicillin-resistant S. aureus; details: Staphylococcus aureus, clinical isolate, 24 h at 37 °C, read-out: MIC MRSA SA 3202
[1] = Lipophilicity determination by RP-HPLC (log k, log D); type: physicochemical; details: for log D6.5: RP-HPLC C18, MeOH 72 % / acetate-buffered saline pH 6.5; for log D7.4: RP-HPLC C18, MeOH 72 % / acetate-buffered saline pH 7.4; for log k (logarithm of the capacity factor): RP-HPLC C18, MeOH 72 % / water 28 %
Text: An HPLC system Agilent 1200 equipped with a DAD detector (Agilent, Santa Clara, CA, USA) was used. A chromatographic column Symmetry® C18 5 μm, 4.6×250 mm, part No. WAT054275 (Waters Corp., Milford, MA, USA) was used. The HPLC separation process was monitored and evaluated with EZChrom Elite software ver. 3.3.2 (Agilent). Isocratic elution by a mixture of MeOH p.a. (72 %) and H2O-HPLC Mili-Q grade (28 %) as a mobile phase was used for the determination of capacity factor k. Isocratic elution by a mixture of MeOH p.a. (72 %) and acetate-buffered saline (pH 7.4 and pH 6.5) (28 %) as a mobile phase was used for the determination of distribution coefficients expressed as D7.4 and D6.5. The total flow of the column was 1.0 mL min^-1, the injection volume was 20 μL, the column temperature was 40 °C, and the sample temperature was 10 °C. The detection wavelength of 210 nm was chosen. A KI methanolic solution was used to determine the dead times (tD). Retention times (tR) were measured in minutes. The capacity factors k were calculated according to the formula k = (tR–tD)/tD, where tR is the retention time of the solute, and tD is the dead time obtained using an unretained analyte. The distribution coefficients DpH were calculated according to the formula DpH = (tR–tD)/tD. Each experiment was repeated three times.
The capacity factor and distribution coefficients were measured by RP-HPLC on a C18 column with methanol as an organic modifier of the mobile phase. In addition to the experimental lipophilicities, predicted log P values were also calculated using ACD/Percepta, see Table 1. […] The values of σ(Ar) are found in a wide range from 0.01 to 1.36, so the compounds contain substituents with both electron-donating and slightly electron-withdrawing properties.

in vitro = details: human
Description: Cytotoxicity of the compounds was determined using an LDH assay kit (Roche Diagnostics, Mannheim, Germany) as described previously. Human monocytic leukemia THP-1 cells (European Collection of Cell Cultures, Salisbury, UK) were exposed for 24 h at 37 °C to various compound concentrations ranging from 0.37 to 30 μM in RPMI 1640 medium. For LDH assays, cells were seeded into 96-well plates (5×10^4 cells/well in 100 μL culture medium) in triplicate in serum-free RPMI 1640 medium and measurements were taken 24 h after the treatment with the compounds. The maximum concentration of DMSO (Sigma) in the assays never exceeded 0.1 %. […] The median lethal dose values, LC50, were deduced through the production of a dose-response curve. All data from three independent experiments were evaluated using GraphPad Prism 5.00 software (GraphPadSoftware, San Diego, CA, USA).

[2] = test system: Enterococcus faecalis ATCC 29212; assay: Antibacterial screening, broth microdilution MIC; type: cell-based; details: read-out: MIC E. faecalis
S. aureus ATCC 29213 = assay: Antibacterial screening, broth microdilution MIC; type: cell-based; details: Staphylococcus aureus, ATCC29213; ATCC 29213, 24 h at 37 °C; read-out: MIC S. aureus
[3] = test system: Mycobacterium tuberculosis ATCC 25177/H37Ra; assay: Antimycobacterial screening, broth dilution MIC (Alamar blue); type: cell-based; details: 336 h, H37Ra, 14 days at 37 °C, Alamar blue, read-out: MIC M. tuberculosis
Description: The evaluation of in vitro antimycobacterial activity of the compounds was performed against Mycobacterium tuberculosis ATCC 25177/H37Ra, Mycobacterium kansasii DSM 44162 and Mycobacterium smegmatis ATCC 700084.
The broth dilution micro-method in Middlebrook 7H9 medium (Difco, Lawrence, KS, USA) supplemented with ADC Enrichment (Difco) was used to determine the minimum inhibitory concentration (MIC) as previously described. […] The final concentrations of the evaluated compounds, ranging from 256 to 0.125 μg mL^-1, were obtained by twofold serial dilution of the stock solution in a microtiter plate with a sterile medium. Bacterial inocula were prepared by transferring colonies from culture to sterile water. The plate was inoculated by tested microorganisms. The final concentration of bacterial cells was 1.5×10^6 for M. tuberculosis and 10^5 cells in a microtiter plate for other mycobacteria. Isoniazid and rifampicin (Sigma) were used as reference antimycobacterial drugs. Drug-free controls, sterility controls, and controls consisting of medium and DMSO alone were included. The plates were incubated for a defined time at an appropriate temperature (3 days at 37 °C for M. smegmatis, and 14 days at 37 °C for M. tuberculosis and M. kansasii). […] The MICs against M. tuberculosis were evaluated by Alamar blue (Oxoid). After incubation, 10 % of Alamar blue was added to each well, and the plate was incubated for 24 h. The MIC values were assessed as the lowest concentration of the tested compounds, which prevented changing blue resazurin to pink resorufin. The experiments were repeated three times. The minimum inhibitory concentrations (MICs) were defined as the lowest concentration of the compound at which no visible bacterial growth was observed. The MIC value is routinely and widely used in bacterial assays and is a standard detection limit according to the CLSI [60].

[4] = test system: Mycobacterium kansasii DSM 44162; assay: Antimycobacterial screening, broth dilution MIC; type: cell-based; details: DSM44162, 336 h, read-out: MIC M. kansasii
[5] = test system: Mycobacterium smegmatis ATCC 700084; assay: Antimycobacterial screening, broth dilution MIC; type: cell-based; details: Mycolicibacterium smegmatis, ATCC700084, 72 h, read-out: MIC M. smegmatis
[6] = test system: human monocytic leukemia THP-1 cells; details: cited from earlier work
[7] = clinical isolate, 24 h at 37 °C
[8] = ATCC29212, ATCC 29212, 24 h at 37 °C

Row | Compound | MIC (VRE 342B) [µM] | MIC (VRE 368; vanA isolate, 24 h at 37 °C) [µM] | MIC (E. coli ATCC 25922) [µM] | MIC (VRE 725B) [µM] | MIC (MRSA SA 630; [7]) [µM] | MIC (MRSA 63718; [7]) [µM] | MIC (MRSA SA 3202) [µM] | log D6.5 [1] | log D7.4 [1] | CC50 at 24 h (in vitro) [µM] | MIC [2, 8] [µM] | MIC (S. aureus ATCC 29213) [µM] | MIC [3] [µM] | MIC ([4]; DSM 44162, 14 days at 37 °C) [µM] | MIC ([5]; ATCC 700084, 3 days at 37 °C) [µM] | log k (logarithm of the capacity factor) [1] | further results
1 | O=C(Nc1ccc([N+](=O)[O-])c(C(F)(F)F)c1)c1c(O)ccc2ccccc12 [Compound 27, 2-Hydroxy-N-[4-nitro-3-(trifluoromethyl)phenyl]naphthalene-1-carboxamide] | 42.5 (≈ 16 µg/mL) | 21.3 (≈ 8.01 µg/mL) | 680 (≈ 256 µg/mL) | 42.5 (≈ 16 µg/mL) | 1.33 (≈ 0.5 µg/mL) | 1.33 (≈ 0.5 µg/mL) | 1.33 (≈ 0.5 µg/mL) | 0.3282 | 0.3220 | > 30 | 21.3 (≈ 8.01 µg/mL) | 0.332 (≈ 0.125 µg/mL) | 85 (≈ 32 µg/mL) | 21.3 (≈ 8.01 µg/mL) | 21.3 (≈ 8.01 µg/mL) |  | 
2 | Cc1ccc(C(F)(F)F)cc1NC(=O)c1c(O)ccc2ccccc12 [Compound 22, 2-Hydroxy-N-[2-methyl-5-(trifluoromethyl)phenyl]naphthalene-1-carboxamide] | 92.6 (≈ 32 µg/mL) |  | 23.2 (≈ 8.01 µg/mL) | 92.6 (≈ 32 µg/mL) | 2.9 (≈ 1 µg/mL) | 5.79 (≈ 2 µg/mL) | 2.9 (≈ 1 µg/mL) | 0.3444 | 0.3440 | > 30 |  | 2.9 (≈ 1 µg/mL) | 46.3 (≈ 16 µg/mL) |  | 23.2 (≈ 8.01 µg/mL) |  | MIC (VRE 368; 24 h): 46.3 µM (≈ 16 µg/mL); MIC ([2]; ATCC29212, 24 h): 46.3 µM (≈ 16 µg/mL); MIC [4]: 46.3 µM (≈ 16 µg/mL)
3 | Cc1cc(C)cc(NC(=O)c2c(O)ccc3ccccc23)c1 [Compound 13, N-(3,5-Dimethylphenyl)-2-hydroxynaphthalene-1-carboxamide] | 879 (≈ 256 µg/mL) | 879 (≈ 256 µg/mL) | 879 (≈ 256 µg/mL) | 879 (≈ 256 µg/mL) | 54.9 (≈ 16 µg/mL) | 54.9 (≈ 16 µg/mL) | 54.9 (≈ 16 µg/mL) | 0.3429 | 0.3480 | > 30 | 879 (≈ 256 µg/mL) | 54.9 (≈ 16 µg/mL) | 439 (≈ 128 µg/mL) | 110 (≈ 32 µg/mL) | 220 (≈ 64.1 µg/mL) | 0.3367 | 
4 | O=C(Nc1ccc([N+](=O)[O-])cc1)c1c(O)ccc2ccccc12 [Compound 26, 2-hydroxy-N-(4-nitrophenyl)naphthalene-1-carboxamide] | 830 (≈ 256 µg/mL) | 830 (≈ 256 µg/mL) | 830 (≈ 256 µg/mL) | 830 (≈ 256 µg/mL) | 415 (≈ 128 µg/mL) | 830 (≈ 256 µg/mL) |  | 0.0862 | 0.0879 |  | 415 (≈ 128 µg/mL) | > 830 | 104 (≈ 32.1 µg/mL) | 415 (≈ 128 µg/mL) | 208 (≈ 64.1 µg/mL) | 0.0984 | CC50 [6]: 2.5 ± 0.1 µM
5 | O=C(Nc1ccccc1[N+](=O)[O-])c1c(O)ccc2ccccc12 [Compound 24, 2-hydroxy-N-(2-nitrophenyl)naphthalene-1-carboxamide] | 830 (≈ 256 µg/mL) | 830 (≈ 256 µg/mL) | 830 (≈ 256 µg/mL) | 830 (≈ 256 µg/mL) |  | 415 (≈ 128 µg/mL) | 51.9 (≈ 16 µg/mL) | 0.3077 | 0.3103 |  | 830 (≈ 256 µg/mL) | 26 (≈ 8.02 µg/mL) | 104 (≈ 32.1 µg/mL) | 51.9 (≈ 16 µg/mL) | 208 (≈ 64.1 µg/mL) | 0.3033 | CC50 [6]: > 20 µM
6 | Cc1ccc(C)c(NC(=O)c2c(O)ccc3ccccc23)c1 [Compound 11, N-(2,5-Dimethylphenyl)-2-hydroxynaphthalene-1-carboxamide] | 879 (≈ 256 µg/mL) | 879 (≈ 256 µg/mL) | 879 (≈ 256 µg/mL) | 879 (≈ 256 µg/mL) | 110 (≈ 32 µg/mL) | 110 (≈ 32 µg/mL) | 110 (≈ 32 µg/mL) | 0.2455 | 0.2514 |  | 879 (≈ 256 µg/mL) | 110 (≈ 32 µg/mL) | 439 (≈ 128 µg/mL) | 110 (≈ 32 µg/mL) | 220 (≈ 64.1 µg/mL) | 0.2486 | 
7 | CC[C@@]1(O)C(=O)OCc2c1cc1n(c2=O)Cc2cc3ccccc3nc2-1 [CMP, camptothecin, reference compound] |  |  |  |  |  |  |  |  |  | 0.16 ± 0.07 |  |  |  |  |  |  | 
8 | COc1ccc(NC(=O)c2c(O)ccc3ccccc23)cc1C(F)(F)F [Compound 21, 2-Hydroxy-N-[4-methoxy-3-(trifluoromethyl)phenyl]naphthalene-1-carboxamide] | 177 (≈ 64 µg/mL) | 88.6 (≈ 32 µg/mL) | 709 (≈ 256 µg/mL) | 88.6 (≈ 32 µg/mL) | 88.6 (≈ 32 µg/mL) | 177 (≈ 64 µg/mL) | 88.6 (≈ 32 µg/mL) | 0.1704 | 0.1745 |  | 88.6 (≈ 32 µg/mL) | 88.6 (≈ 32 µg/mL) | 354 (≈ 128 µg/mL) | 709 (≈ 256 µg/mL) | 177 (≈ 64 µg/mL) | 0.16 and 0.1635 | 
9 | COc1cc(NC(=O)c2c(O)ccc3ccccc23)cc(OC)c1 [Compound 6, N-(3,5-Dimethoxyphenyl)-2-hydroxynaphthalene-1-carboxamide] | 792 (≈ 256 µg/mL) | 792 (≈ 256 µg/mL) | 792 (≈ 256 µg/mL) | 792 (≈ 256 µg/mL) |  |  | 198 (≈ 64 µg/mL) | 0.0411 | 0.0490 | > 30 | 792 (≈ 256 µg/mL) | 198 (≈ 64 µg/mL) | 396 (≈ 128 µg/mL) | 98.9 (≈ 32 µg/mL) |  | 0.0388 | MIC (MRSA SA 630; 24 h): 396 µM (≈ 128 µg/mL); MIC (MRSA 63718; 24 h): 396 µM (≈ 128 µg/mL); MIC [5]: 396 µM (≈ 128 µg/mL)
